Results: patent publication US20230279061A1, “ISOLATED PEPTIDE FOR A PEPTIDE COACERVATE, AND METHODS OF USE THEREOF” (NANYANG TECHNOLOGICAL UNIVERSITY, priority 2020, published 2023)
Where a SMILES comes first, the peptide text is derived from it. Where no end group is shown, it is not given here. The star is where a group is joined. X1 = O=C(OCCSSCCOC(=O)*)c1ccccc1; X2 = CC(=O)OCCSSCCOC(=O)*

Legend:
[1] = Optical/fluorescence microscopy of coacervates; type: physicochemical; settings: near-physiological conditions
Method: Optical and fluorescence microcopy images of HBpep-SP coacervates and fluorescence image of macromolecules-loaded HBpep-SP coacervates were taken using an invert fluorescence microscope (AxioObserver.Z1, Zeiss, Germany). Dynamic light scattering (DLS, ZetaPALS, Brookhaven, USA) system was employed to measure the size of pristine HBpep-SR coacervates and macromolecules-loaded HBpep-SR coacervates. The fresh prepared pristine or macromolecules-loaded coacervates (with or without 0.1 mg/mL of macromolecules, 1 mg/mL of modified peptides) was diluted into PBS with a volume ratio of 1 : 9.0 before the DLS test.

HEK293 cells = assay: MTT cytotoxicity assay; type: cell-based; settings: optimal concentration, HEK293 (FIG. 10D)
Method: (§1) The cytotoxicity of the therapeutics-loaded or pristine peptide coacervates was evaluated by using the methylthiazolyldiphenyl-tetrazolium bromide (MTT) assay. Following literature protocols (Chang, H. et al., Nano Letters, 2017, 17, 1678; Sun, Y. et al. Biomat., 2017, 117, 77), 10^4 of HepG2 or HEK293 cells in 100 µL of media (DMEM, 10% FBS, antibiotics) were transferred into 96-wells plates and incubated for 24 hours. Then, the media were replaced with 100 µL of Opti-MEM containing therapeutics-loaded coacervates (various concentration of therapeutics, 1 mg/mL HBpep-SP) or various concentrations of pristine coacervate suspensions. After 4 hours of uptake, the media were removed and the cells were washed by PBS twice before adding 100 µL of media (DMEM, 10% FBS, antibiotics). The cells were incubated for another 20 hours before 10 µL of 5 mg/mL MTT dissolved in PBS was added. The media were removed after 4 hours of incubation with MTT, and the cells were washed by PBS twice. After that, 100 µL of DMSO per well was added for absorbance measurements at 570 nm using a microplate reader (Infinite M200 Pro, Tecan, Switzerland). The relative cell viability was calculated as: […]
(§2) where At, Ab, and Ac represent the absorbance of tested cells, control cells and no cell, respectively.

HepG2 cells [2] = assay: MTT cytotoxicity assay; type: cell-based; settings: for cytotoxicity of coacervates with luciferase-encoding mRNA: optimal concentration, HepG2 (FIG. 10C); for cytotoxicity of peptide alone: free peptide, HepG2
Method: as §1, §2

[3] = Turbidity measurement of phase separation (coacervation) at various pH; type: physicochemical
Text: The phase separation behavior of HBpep-K and HBpep-SR peptides at various pH was monitored turbidity measurements using a UV-Vis spectrometer (UV-2501PC, Shimadzu, Japan). The absorbance at 600 nm (A600) was used to calculate the relative turbidity (Lim, Z.W. et al., Bioconjugate Chem., 2018, 29, 2176) as: […]

HepG2 cells [4] = assay: Delivery of proteins and peptides into cells (fluorescence microscopy); type: cell-based; settings: free form, not recruited in coacervates
Method: (§3) For protein delivery into cells, 10^5 of cells were suspended in 1 mL of Dulbecco’s modified Eagle medium (DMEM) supplemented with 10% of fetal bovine serum, 100 units/mL of penicillin and 100 µg/mL of streptomycin, and then transferred into […] culture dishes. After 24 hours of incubation at 37° C. with 5% of CO2, the media was replaced with 900 µL of Opti-MEM. Then, 100 µL of freshly prepared protein-loaded HBpep-SA or HBpep-SP coacervate suspensions (0.1 mg/mL of cargos, 1 mg/mL of modified peptides) were added into the media. After 4 hours of incubation, the media was removed and the cells were washed with PBS twice before adding 1 mL of fresh media (DMEM, 10% FBS, antibiotics). The cells were incubated for another 20 hours and then washed twice at pH 5.0 in phosphate buffer to remove any coacervates that had not entered the cells, before being imaged under the fluorescence microscope (AxioObserver.Z1, Zeiss, Germany).

HepG2 cells [5] = assay: X-Gal staining of cells after β-Gal delivery; type: cell-based; settings: 24 hours
Method: as §3
To further confirm the versatility of the HBpep-SR peptide coacervate delivery system, β-Gal, a very high MW enzyme (MW = 430 kDa) was selected to be recruited into the HBpep-SP peptide coacervate. Intracellular delivery of β-Gal is challenging because of the difficulty in forming complexes with common nanocarriers owing to its high MW (Mitragotri, S. et al., Nat. Reviews Drug Disc., 2014, 13, 655).

CC(=O)OCCSSCCOC(=O)NCCCC[C@H](NC(=O)[C@H](Cc1ccc(O)cc1)NC(=O)[C@@H]1CCCN1C(=O)CNC(=O)[C@H](Cc1c[nH]cn1)NC(=O)CNC(=O)[C@H](Cc1ccc(O)cc1)NC(=O)[C@@H](NC(=O)CNC(=O)[C@H](Cc1c[nH]cn1)NC(=O)CNC(=O)[C@H](Cc1ccc(O)cc1)NC(=O)[C@@H](NC(=O)CNC(=O)[C@H](Cc1c[nH]cn1)NC(=O)CN)C(C)C)C(C)C)C(=O)NCC(=O)N[C@@H](Cc1c[nH]cn1)C(=O)NCC(=O)N1CCC[C@H]1C(=O)N[C@@H](Cc1ccc(O)cc1)C(=O)NCC(=O)N[C@@H](Cc1c[nH]cn1)C(=O)NCC(=O)N[C@@H](CC(C)C)C(=O)N[C@@H](Cc1ccc(O)cc1)C(=O)N[C@@H](Cc1c[nH]c2ccccc12)C(=O)O [HBpep-SA] (H-GHGVYGHGVYGHGPYK(X2)GHGPYGHGLYW-OH)
stability of coacervate microdroplets [1]: formed stable microdroplets at near-physiological conditions | cytotoxicity of coacervates with luciferase-encoding mRNA (HEK293 cells): neither HBpep-SA nor HBpep-SP peptide coacervates with luciferase-encoding mRNA caused cytotoxicity | cytotoxicity of coacervates with luciferase-encoding mRNA (HepG2 cells [2]): neither HBpep-SA nor HBpep-SP peptide coacervates with luciferase-encoding mRNA caused cytotoxicity

CC(C)C[C@H](NC(=O)CNC(=O)[C@H](Cc1c[nH]cn1)NC(=O)CNC(=O)[C@H](Cc1ccc(O)cc1)NC(=O)[C@@H]1CCCN1C(=O)CNC(=O)[C@H](Cc1c[nH]cn1)NC(=O)CNC(=O)[C@H](CCCCNC(=O)OCCSSCCOC(=O)c1ccccc1)NC(=O)[C@H](Cc1ccc(O)cc1)NC(=O)[C@@H]1CCCN1C(=O)CNC(=O)[C@H](Cc1c[nH]cn1)NC(=O)CNC(=O)[C@H](Cc1ccc(O)cc1)NC(=O)[C@@H](NC(=O)CNC(=O)[C@H](Cc1c[nH]cn1)NC(=O)CNC(=O)[C@H](Cc1ccc(O)cc1)NC(=O)[C@@H](NC(=O)CNC(=O)[C@H](Cc1c[nH]cn1)NC(=O)CN)C(C)C)C(C)C)C(=O)N[C@@H](Cc1ccc(O)cc1)C(=O)N[C@@H](Cc1c[nH]c2ccccc12)C(=O)O [HBpep-SP] (H-GHGVYGHGVYGHGPYK(X1)GHGPYGHGLYW-OH)
stability of coacervate microdroplets [1]: formed stable microdroplets at near-physiological conditions | cytotoxicity of coacervates with luciferase-encoding mRNA (HEK293 cells): neither HBpep-SA nor HBpep-SP peptide coacervates with luciferase-encoding mRNA caused cytotoxicity | cytotoxicity of coacervates with luciferase-encoding mRNA (HepG2 cells [2]): neither HBpep-SA nor HBpep-SP peptide coacervates with luciferase-encoding mRNA caused cytotoxicity

AVPIAQK [Smac, AVPIAQK, reference compound]
cytotoxicity of peptide alone (HepG2 cells [2]): negligible cytotoxicity

GHGVY GHGVY GHGPY K GHGPY GHGLY W (GHGVYGHGVYGHGPYKGHGPYGHGLYW; HBpep derivative) [HBpep-K, HBpep with a single lysine residue inserted at position 16]
phase state at neutral pH ([3]; neutral pH): reverts to the single phase | pH at which the peptide phase separates ([3]; turbidity at various pH): 9.0 pH

KLAKLAK KLAKLAK (KLAKLAKKLAKLAK) [PAD, proapoptotic domain peptide, reference compound]
cytotoxicity of peptide alone (HepG2 cells [2]): negligible cytotoxicity

lysozyme: Alexa Fluor 488-labeled lysozyme, cargo protein
internalization / crossing of the cell membrane by free cargo (HepG2 cells [4]): neither lysozyme (FIGS. 8E, 8F) nor BSA (FIGS. 8G, 8H) were internalized by HepG2 cells

β-Gal
X-Gal staining (β-Gal activity in cells) (HepG2 cells [5]): no blue pigment formation
